Laboratory results from US11702409B2, “Pyrazolyl derivatives useful as anti-cancer agents” (NOVARTIS AG, priority 2019, dated 2023).

Molecular target: KRasG12C (M1-K169, biotinylated on the N-terminus) (Homo sapiens (Human), UniProt P01116, G12C)
Assay: Covalent competition assay (scintillation proximity assay, competition with radiolabeled covalent probe Compound B)
Assay type: binding
Conditions: in vitro KRASG12C activity; 10 nM KRasG12C:GDP, 25 nM radio-ligand and 475 nM unlabelled ligand, incubated 2 hours; read-out: Covalent Competition Assay IC50
How it was run: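 Biotinylated KRasG12C (M1-K169):GDP incubated 2 h with agitation with serially diluted compounds premixed with a fixed concentration of radiolabeled covalent probe; scintillation proximity read-out of competition for covalent modification. Buffer 20 mM Tris-HCl pH 7.5, 150 mM NaCl, 0.1 mM MgCl2, 0.01% Tween-20. IC50 from 4-parameter fit.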

| Structure (SMILES) | IC50 |
| --- | --- |
| C=CC(=O)N1CC2(CC(n3nc(-c4cscn4)c(-c4c(Cl)c(C)cc5[nH]ncc45)c3C)C2)C1 (single isomer, unassigned) [Example 51b, 1-(6-(4-(5-chloro-6-methyl-1H-indazol-4-yl)-5-methyl-3-(thiazol-4-yl)-1H-pyrazol-1-yl)-2-azaspiro[3.3]heptan-2-yl)prop-2-en-1-one] | 36.1 µM |
| C=CC(=O)N1CC2(CC(n3nc(-c4ccc5c(c4)ncn5C)c(-c4c(Cl)c(C)cc5[nH]ncc45)c3C)C2)C1 (single isomer, unassigned) [Example 30a] | 0.103 µM |
| C=CC(=O)N1CC2(CC(n3nc(-c4ccc5nnccc5c4)c(-c4c(Cl)c(C)cc5[nH]ncc45)c3C)C2)C1 (single isomer, unassigned) [Example 71b, 1-(6-(4-(5-chloro-6-methyl-1H-indazol-4-yl)-3-(cinnolin-6-yl)-5-methyl-1H-pyrazol-1-yl)-2-azaspiro[3.3]heptan-2-yl)prop-2-en-1-one] | > 5 µM |
| C=CC(=O)N1CC2(CC(n3nc(-c4cncnc4)c(-c4c(Cl)c(Cl)cc5[nH]ncc45)c3C(F)F)C2)C1 (single isomer, unassigned) [Example 86b] | > 50 µM |
| C=CC(=O)N1CC2(CC(n3nc(-c4cnc(OC)nc4)c(-c4c(Cl)ccc5[nH]ncc45)c3C)C2)C1 (single isomer, unassigned) [Example 90a] | 3.5 µM |
| C=CC(=O)N1CC2(CC(n3nc(-c4ccc5c(c4)CN(C)C(=O)C5)c(-c4c(Cl)c(C)cc5[nH]ncc45)c3C)C2)C1 (single isomer, unassigned) [Example 21a] | 0.06 µM |
| C=CC(=O)N1CC2(CC(n3nc(-c4cnc5c(ccn5C)c4)c(-c4c(Cl)c(C)cc5[nH]ncc45)c3C)C2)C1 (single isomer, unassigned) [Example 8a] | 0.066 µM |
| C=CC(=O)N1CC2(CC(n3nc(-c4ccc5cn[nH]c5c4)c(-c4c(Cl)c(C)cc5[nH]ncc45)c3C)C2)C1 [Example 14] | 0.31 µM |
| C=CC(=O)N1CC2(CC(n3nc(-c4ccc5nn(CCOC)cc5c4)c(-c4c(Cl)c(C)cc5[nH]nc(N)c45)c3C)C2)C1 (single isomer, unassigned) [Example 69a, 1-(6-{(4M)-4-(3-Amino-5-chloro-6-methyl-1H-indazol-4-yl)-3-[2-(2-methoxyethyl)-2H-indazol-5-yl]-5-methyl-1H-pyrazol-1-yl}-2-azaspiro[3.3]heptan-2-yl)prop-2-en-1-one] | 0.009 µM |
| C=CC(=O)N1CC2(CC(n3nc(-c4ccc(-n5nccc5N)nc4)c(-c4c(Cl)c(C)cc5[nH]ncc45)c3C)C2)C1 (single isomer, unassigned) [Example 7a] | 0.162 µM |
| C=CC(=O)N1CC2(CC(n3nc(-c4cnn(S(=O)(=O)C5CC5)c4)c(-c4c(Cl)c(C)cc5[nH]ncc45)c3C)C2)C1 (single isomer, unassigned) [Example 36b] | > 50 µM |
| C=CC(=O)N1CC2(CC(n3nc(-c4cnn5c4CCC5)c(-c4c(Cl)c(C)cc5[nH]ncc45)c3C)C2)C1 (single isomer, unassigned) [Example 34b] | > 50 µM |
| C=CC(=O)N1CC2(CC(n3nc(-c4ccc5nn(CCOCCOC)cc5c4)c(-c4c(Cl)c(C)cc5[nH]ncc45)c3C)C2)C1 (single isomer, unassigned) [Example 43b] | 2.9 µM |
| C=CC(=O)N1CC2(CC(n3nc(-c4ccc5nc(NC)ncc5c4)c(-c4c(Cl)c(C)cc5[nH]ncc45)c3C)C2)C1 (single isomer, unassigned) [Example 40b] | > 50 µM |
| C=CC(=O)N1CC2(CC(n3nc(-c4ccc(=O)n(C)c4)c(-c4c(Cl)c(C)cc5[nH]ncc45)c3C)C2)C1 (single isomer, unassigned) [Example 6a] | 1.2 µM |
| C=CC(=O)N1CC2(CC(n3nc(-c4ccc(COCCOC)cc4)c(-c4c(Cl)c(C)cc5[nH]ncc45)c3C)C2)C1 (single isomer, unassigned) [Example 39a] | 0.032 µM |
| C=CC(=O)N1CC2(CC(n3nc(-c4ccc5ncnn5c4)c(-c4c(Cl)c(C)cc5[nH]ncc45)c3C)C2)C1 (single isomer, unassigned) [Example 23b] | 13.9 µM |
| C=CC(=O)N1CC2(CC(n3nc(-c4ccc(O)cc4F)c(-c4c(Cl)c(C)cc5[nH]ncc45)c3C)C2)C1 (single isomer, unassigned) [Example 58b] | > 5 µM |
| C=CC(=O)N1CC2(CC(n3nc(-c4cccnc4)c(-c4c(Cl)c(C)cc5[nH]ncc45)c3C(F)F)C2)C1 (single isomer, unassigned) [Example 87a] | 0.806 µM |
| C=CC(=O)N1CC2(CC(n3nc(-c4cnc5c(c4)ncn5C)c(-c4c(Cl)c(C)cc5[nH]ncc45)c3C)C2)C1 (single isomer, unassigned) [Example 38a] | 0.487 µM |
| C=CC(=O)N1CC2(CC(n3nc(-c4ccc5c(c4)CCN5C(C)=O)c(-c4c(Cl)c(C)cc5[nH]ncc45)c3C)C2)C1 (single isomer, unassigned) [Example 22a] | 0.023 µM |

| Structure (SMILES) | IC50 |
| --- | --- |
| C=CC(=O)N1CC2(CC(n3nc(-c4ccc(N5CCS(=O)(=O)CC5)cc4)c(-c4c(Cl)c(C)cc5[nH]ncc45)c3C)C2)C1 (single isomer, unassigned) [Example 50b, 1-(6-(4-(5-chloro-6-methyl-1H-indazol-4-yl)-3-(4-(1,1-dioxidothiomorpholino)phenyl)-5-methyl-1H-pyrazol-1-yl)-2-azaspiro[3.3]heptan-2-yl)prop-2-en-1-one] | 4.24 µM |
| C=CC(=O)N1CC2(CC(n3nc(-c4c(C)cncc4C)c(-c4c(Cl)c(C)cc5[nH]ncc45)c3C)C2)C1 (single isomer, unassigned) [Example 74a] | 1.55 µM |
| C=CC(=O)N1CC2(CC(n3nc(-c4cnc(OC)nc4)c(-c4c(Cl)ccc5[nH]ncc45)c3C)C2)C1 (single isomer, unassigned) [Example 90b] | > 50 µM |
| C=CC(=O)N1CC2(CC(n3nc(-c4cccnc4C)c(-c4c(Cl)c(C)cc5[nH]ncc45)c3C(F)F)C2)C1 (single isomer, unassigned) [Example 84b, 1-(6-(4-(5-Chloro-6-methyl-1H-indazol-4-yl)-5-(difluoromethyl)-3-(2-methylpyridin-3-yl)-1H-pyrazol-1-yl)-2-azaspiro[3.3]heptan-2-yl)prop-2-en-1-one] | > 50 µM |
| C=CC(=O)N1CC2(CC(n3nc(-c4ccc5c(c4)CS(=O)(=O)C5)c(-c4c(Cl)c(C)cc5[nH]ncc45)c3C)C2)C1 (single isomer, unassigned) [Example 72b] | 24 µM |
| C=CC(=O)N1CC2(CC(n3nc(-c4ccc(O)cc4)c(-c4c(Cl)c(C)cc5[nH]ncc45)c3C)C2)C1 (single isomer, unassigned) [Example 57a] | 0.033 µM |
| C=CC(=O)N1CC2(CC(n3nc(-c4cncnc4)c(-c4c(Cl)c(Cl)cc5[nH]ncc45)c3C(F)F)C2)C1 (single isomer, unassigned) [Example 86a] | 1.3 µM |
| C=CC(=O)N1CC2(CC(n3nc(-c4cccc5c4cnn5C)c(-c4c(Cl)c(C)cc5[nH]ncc45)c3C)C2)C1 (single isomer, unassigned) [Example 29a] | 0.22 µM |
| C=CC(=O)N1CC2(CC(n3nc(-c4ccc5nn(CCN(C)C)cc5c4)c(-c4c(Cl)c(C)cc5[nH]ncc45)c3C)C2)C1 (single isomer, unassigned) [Example 16a] | 0.011 µM |
| C=CC(=O)N1CC2(CC(n3nc(-c4ccc5nn(CCOC)cc5c4)c(-c4c(Cl)c(C)cc5[nH]nc(N)c45)c3C)C2)C1 (single isomer, unassigned) [Example 69b, 1-(6-(4-(3-amino-5-chloro-6-methyl-1H-indazol-4-yl)-3-(2-(2-methoxyethyl)-2H-indazol-5-yl)-5-methyl-1H-pyrazol-1-yl)-2-azaspiro[3.3]heptan-2-yl)prop-2-en-1-one] | 0.84 µM |
| C=CC(=O)N1CC2(CC(n3nc(-c4ccc(O)cc4)c(-c4c(Cl)c(C)cc5[nH]ncc45)c3C)C2)C1 (single isomer, unassigned) [Example 57b] | 3.2 µM |
| C=CC(=O)N1CC2(CC(n3nc(-c4ccc(C(=O)NCCOC)c(F)c4)c(-c4c(Cl)c(C)cc5[nH]ncc45)c3C)C2)C1 (single isomer, unassigned) [Example 63a] | 0.088 µM |
| C=CC(=O)N1CC2(CC(n3nc(-c4ccc5nn(CC(C)(C)O)cc5c4)c(-c4c(Cl)c(C)cc5[nH]ncc45)c3C)C2)C1 (single isomer, unassigned) [Example 42b] | 1.2 µM |
| C=CC(=O)N1CC2(CC(n3nc(-c4cc(C)nn4CCN(C)C)c(-c4c(Cl)c(C)cc5[nH]ncc45)c3C)C2)C1 (single isomer, unassigned) [Example 92a] | 1.4 µM |
| C=CC(=O)N1CC2(CC(n3nc(-c4ccnc(C#N)c4)c(-c4c(Cl)c(C)cc5[nH]ncc45)c3C)C2)C1 (single isomer, unassigned) [Example 9a] | 0.743 µM |
| C=CC(=O)N1CC2(CC(n3nc(-c4cnn5c4CCC5)c(-c4c(Cl)c(C)cc5[nH]ncc45)c3C)C2)C1 (single isomer, unassigned) [Example 34a] | 0.827 µM |
| C=CC(=O)N1CC2(CC(n3nc(-c4ccc5c(c4)N(C)CCO5)c(-c4c(Cl)c(C)cc5[nH]ncc45)c3C)C2)C1 (single isomer, unassigned) [Example 31a] | 13.9 µM |
| C=CC(=O)N1CC2(CC(n3nc(-c4ccc5nn(CCN6CC[C@H](F)C6)cc5c4)c(-c4c(Cl)c(C)cc5[nH]ncc45)c3C)C2)C1 (single isomer, unassigned) [Example 80a] | 1.3 µM |
| C=CC(=O)N1CC2(CC(n3nc(-c4ccnc(C)c4)c(-c4c(Cl)ccc5[nH]ncc45)c3C)C2)C1 (single isomer, unassigned) [Example 28b] | > 50 µM |
| C=CC(=O)N1CC2(CC(n3nc(-c4ccc5[nH]ncc5c4)c(-c4c(Cl)c(C)cc5[nH]ncc45)c3C)C2)C1 (single isomer, unassigned) [Example 12b] | 6.1 µM |
| C=CC(=O)N1CC2(CC(n3nc(-c4ccc5c(c4)N(C)CC(=O)O5)c(-c4c(Cl)c(C)cc5[nH]ncc45)c3C)C2)C1 (single isomer, unassigned) [Example 32a] | 0.871 µM |
